Experimental data reported in PMC7719162, “Positioning of an unprecedented spiro[5.5]undeca ring system into kinase inhibitor space” (Scientific Reports, 2020).
Read-outs that look alike come from different tables or passages of the source.

Legend:
[1] = target: T1, AMPK(A1/B2/G1) (Homo sapiens, UniProt O43741+P54619+Q13131); experiment: Kinase panel assay (radiolabelled); type: biochemical; settings: 30 μM compound, ATP 10 μM; duplicates Data 1/Data 2; read-out: % Enzyme Activity (relative to DMSO controls)
T1 construct: purchased Reaction Biology Corp

[2] = target: T2, AMPK(A1/B2/G1) (Homo sapiens, UniProt Q13131); experiment: Kinase panel assay (radiolabelled); type: biochemical; settings: 30 μM compound, ATP 10 μM; duplicates Data 1/Data 2
T2 construct: purchased Reaction Biology Corp

[3] = target: T3, AMPK(A2/B1/G1) (Homo sapiens, UniProt P54619+P54646+Q9Y478); experiment: Kinase panel assay (radiolabelled); type: biochemical; settings: 30 μM compound, ATP 10 μM; duplicates Data 1/Data 2; read-out: % Enzyme Activity (relative to DMSO controls)
T3 construct: purchased Reaction Biology Corp

[4] = target: T4, AMPK(A2/B1/G1) (Homo sapiens, UniProt P54646); experiment: Kinase panel assay (radiolabelled); type: biochemical; settings: 30 μM compound, ATP 10 μM; duplicates Data 1/Data 2
T4 construct: purchased Reaction Biology Corp

[5] = target: T5, DAPK2 (Homo sapiens, UniProt Q9UIK4); experiment: Kinase panel assay (radiolabelled); type: biochemical; settings: ATP 10 μM
T5 construct: purchased Reaction Biology Corp
T5 sequence (Q9UIK4 whole entry): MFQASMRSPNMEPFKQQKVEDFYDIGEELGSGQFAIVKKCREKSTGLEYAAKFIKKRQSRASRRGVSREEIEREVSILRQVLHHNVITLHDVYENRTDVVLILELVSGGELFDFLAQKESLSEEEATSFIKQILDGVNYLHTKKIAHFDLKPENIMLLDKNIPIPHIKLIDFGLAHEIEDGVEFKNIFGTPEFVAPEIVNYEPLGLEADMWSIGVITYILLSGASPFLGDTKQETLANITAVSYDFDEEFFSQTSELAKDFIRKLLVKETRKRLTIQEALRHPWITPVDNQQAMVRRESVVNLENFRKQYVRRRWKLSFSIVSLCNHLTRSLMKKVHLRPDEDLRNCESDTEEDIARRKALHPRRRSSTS

[6] = target: T6, EEF2K (Homo sapiens, UniProt O00418); experiment: Kinase panel assay (radiolabelled); type: biochemical; settings: 30 μM compound, ATP 10 μM, duplicates Data 1/Data 2
T6 construct: purchased Reaction Biology Corp
T6 sequence (O00418 whole entry): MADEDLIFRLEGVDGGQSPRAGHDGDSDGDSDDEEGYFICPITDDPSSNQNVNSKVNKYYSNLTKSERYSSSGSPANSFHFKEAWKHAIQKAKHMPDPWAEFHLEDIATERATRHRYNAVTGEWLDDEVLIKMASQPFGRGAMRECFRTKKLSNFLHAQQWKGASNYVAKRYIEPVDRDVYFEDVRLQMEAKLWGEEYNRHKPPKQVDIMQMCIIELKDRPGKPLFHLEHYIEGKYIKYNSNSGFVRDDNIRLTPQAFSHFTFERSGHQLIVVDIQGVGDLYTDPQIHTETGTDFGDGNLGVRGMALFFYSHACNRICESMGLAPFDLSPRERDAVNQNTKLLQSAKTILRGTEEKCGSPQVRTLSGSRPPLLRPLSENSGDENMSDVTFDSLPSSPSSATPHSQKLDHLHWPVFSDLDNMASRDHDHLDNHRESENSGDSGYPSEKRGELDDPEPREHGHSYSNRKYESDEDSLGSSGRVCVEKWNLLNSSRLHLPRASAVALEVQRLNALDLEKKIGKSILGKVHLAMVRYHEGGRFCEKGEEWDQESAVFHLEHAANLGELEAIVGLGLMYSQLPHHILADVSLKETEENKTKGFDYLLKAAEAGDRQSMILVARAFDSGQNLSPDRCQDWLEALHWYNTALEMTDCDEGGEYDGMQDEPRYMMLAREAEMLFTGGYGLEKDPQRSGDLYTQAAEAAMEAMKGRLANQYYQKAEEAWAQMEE

[7] = target: T7, JNK1 (Homo sapiens, UniProt P45983); experiment: Kinase panel assay (radiolabelled); type: biochemical; settings: ATP 10 μM
T7 construct: purchased Reaction Biology Corp
T7 sequence (P45983 whole entry): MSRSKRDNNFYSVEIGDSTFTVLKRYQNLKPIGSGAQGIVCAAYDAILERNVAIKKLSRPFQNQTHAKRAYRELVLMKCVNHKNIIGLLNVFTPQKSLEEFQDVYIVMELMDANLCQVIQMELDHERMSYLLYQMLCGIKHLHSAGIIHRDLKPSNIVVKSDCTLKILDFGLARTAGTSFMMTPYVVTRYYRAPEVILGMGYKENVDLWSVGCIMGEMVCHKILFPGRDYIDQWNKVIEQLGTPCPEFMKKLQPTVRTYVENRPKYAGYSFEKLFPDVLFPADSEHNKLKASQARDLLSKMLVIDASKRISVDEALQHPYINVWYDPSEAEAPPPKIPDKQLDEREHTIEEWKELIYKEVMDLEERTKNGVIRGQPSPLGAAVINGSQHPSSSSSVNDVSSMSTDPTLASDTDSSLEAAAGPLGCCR

[8] = target: T8, ROCK2 (Homo sapiens, UniProt O75116); experiment: Kinase panel assay (radiolabelled); type: biochemical; settings: ATP 10 μM
T8 construct: purchased Reaction Biology Corp
T8 sequence (O75116 whole entry): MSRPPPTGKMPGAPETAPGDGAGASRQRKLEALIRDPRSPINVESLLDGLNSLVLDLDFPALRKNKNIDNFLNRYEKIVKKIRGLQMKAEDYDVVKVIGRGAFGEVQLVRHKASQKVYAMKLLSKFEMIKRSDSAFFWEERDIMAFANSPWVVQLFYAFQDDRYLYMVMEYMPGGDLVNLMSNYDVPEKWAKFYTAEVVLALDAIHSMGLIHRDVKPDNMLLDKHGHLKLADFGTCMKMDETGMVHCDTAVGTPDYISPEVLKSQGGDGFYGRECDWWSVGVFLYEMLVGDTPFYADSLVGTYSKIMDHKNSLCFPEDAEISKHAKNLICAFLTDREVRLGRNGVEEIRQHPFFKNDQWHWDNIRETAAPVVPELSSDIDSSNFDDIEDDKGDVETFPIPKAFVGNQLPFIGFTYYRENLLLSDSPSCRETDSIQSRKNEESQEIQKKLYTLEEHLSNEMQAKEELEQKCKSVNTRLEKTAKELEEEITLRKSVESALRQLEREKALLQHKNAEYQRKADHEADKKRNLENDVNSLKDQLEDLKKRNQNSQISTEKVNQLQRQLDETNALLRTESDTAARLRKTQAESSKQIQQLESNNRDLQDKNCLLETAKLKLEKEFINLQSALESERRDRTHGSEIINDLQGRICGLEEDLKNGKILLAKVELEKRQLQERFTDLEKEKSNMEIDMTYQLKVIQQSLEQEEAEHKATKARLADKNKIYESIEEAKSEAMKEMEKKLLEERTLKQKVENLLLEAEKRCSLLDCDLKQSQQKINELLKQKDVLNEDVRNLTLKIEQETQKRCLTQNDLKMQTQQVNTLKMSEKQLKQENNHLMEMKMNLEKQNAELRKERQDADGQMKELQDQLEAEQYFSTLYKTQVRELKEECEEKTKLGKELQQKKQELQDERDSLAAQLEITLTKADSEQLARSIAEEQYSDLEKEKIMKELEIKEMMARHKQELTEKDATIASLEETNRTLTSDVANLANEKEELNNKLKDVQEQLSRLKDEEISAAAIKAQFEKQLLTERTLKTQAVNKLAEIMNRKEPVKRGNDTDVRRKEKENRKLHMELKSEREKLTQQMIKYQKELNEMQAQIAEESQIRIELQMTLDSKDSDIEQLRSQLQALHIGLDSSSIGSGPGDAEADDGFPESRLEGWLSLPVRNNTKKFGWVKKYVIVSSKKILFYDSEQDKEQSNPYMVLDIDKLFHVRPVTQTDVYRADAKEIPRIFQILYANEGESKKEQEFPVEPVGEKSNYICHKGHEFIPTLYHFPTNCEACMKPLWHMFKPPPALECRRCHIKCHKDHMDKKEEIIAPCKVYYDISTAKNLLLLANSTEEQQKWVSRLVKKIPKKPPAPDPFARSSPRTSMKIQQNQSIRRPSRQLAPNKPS

[9] = target: T9, TRKC (G623R/L686M) (Homo sapiens, UniProt Q16288, G623R/L686M); experiment: Kinase panel assay (radiolabelled); type: biochemical; settings: 30 μM compound, ATP 10 μM, duplicates Data 1/Data 2
T9 construct: purchased Reaction Biology Corp
T9 sequence (Q16288 32-839 G623R/L686M): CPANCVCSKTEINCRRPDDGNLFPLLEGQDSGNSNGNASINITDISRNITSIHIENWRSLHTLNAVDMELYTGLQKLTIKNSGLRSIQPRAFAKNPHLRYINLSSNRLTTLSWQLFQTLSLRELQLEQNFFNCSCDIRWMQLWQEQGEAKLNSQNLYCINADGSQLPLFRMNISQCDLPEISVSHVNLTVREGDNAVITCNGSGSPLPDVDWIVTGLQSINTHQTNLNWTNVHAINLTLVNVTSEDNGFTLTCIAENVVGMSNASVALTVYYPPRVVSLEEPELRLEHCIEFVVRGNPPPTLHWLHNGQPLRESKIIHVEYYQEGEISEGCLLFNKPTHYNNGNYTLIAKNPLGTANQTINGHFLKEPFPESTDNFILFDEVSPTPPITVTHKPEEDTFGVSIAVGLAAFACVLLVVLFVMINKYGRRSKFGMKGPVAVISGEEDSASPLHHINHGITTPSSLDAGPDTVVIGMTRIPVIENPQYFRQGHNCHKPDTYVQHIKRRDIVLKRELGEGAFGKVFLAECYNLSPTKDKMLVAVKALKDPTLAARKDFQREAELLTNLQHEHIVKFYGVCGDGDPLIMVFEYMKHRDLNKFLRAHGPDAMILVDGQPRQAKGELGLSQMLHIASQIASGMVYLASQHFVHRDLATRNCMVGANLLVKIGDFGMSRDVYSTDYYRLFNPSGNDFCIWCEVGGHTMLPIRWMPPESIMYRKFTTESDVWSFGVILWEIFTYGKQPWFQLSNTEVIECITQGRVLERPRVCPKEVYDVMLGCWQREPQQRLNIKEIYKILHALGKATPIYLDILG

[10] = target: T10, PI4Ka (Homo sapiens, UniProt P42356); experiment: Kinase panel assay (lipid kinase); type: biochemical; settings: 30 μM compound, ATP 10 μM, duplicates Data 1/Data 2
T10 construct: purchased Reaction Biology Corp

[11] = target: T11, PI3Ka (p110a/p85a) (Homo sapiens, UniProt P42336); experiment: Kinase panel assay (lipid kinase); type: biochemical; settings: 30 μM compound, ATP 10 μM, duplicates Data 1/Data 2
T11 construct: purchased Reaction Biology Corp

[12] = target: T12, PI3Kb (p110b/p85a) (Homo sapiens, UniProt P42338); experiment: Kinase panel assay (lipid kinase); type: biochemical; settings: 30 μM compound, ATP 10 μM, duplicates Data 1/Data 2
T12 construct: purchased Reaction Biology Corp

[13] = MTT cell viability assay; type: cell-based, murine; settings: mouse, BV-2 microglia cells (LPS-activated), mean ± SD
Experimental: (§1) 3-(4,5-dimethylthiazol-2-yl)-2,5-diphenyl-tetrazolium bromide (MTT) assay was performed to evaluate the cytotoxicity of the samples to the microglia. BV2 cells at the density of 4 × 10^4 cells /well were seeded in the 96 well plate and incubated for 24 h. Seeded cells were pre-treated with different concentration of the samples, and LPS (100 ng/ml) activation was performed after 30 min of compound treatment. Treated plate were incubated for 24 h in the incubator and nitric oxide assay and cell viability assay was performed. Treated cell’s conditioned medium was used to evaluate the NO assay, and the attached cells were used to evaluate the cell viability assay. 50 µL of conditioned medium (CM) from treated cells were transferred to a new 96 well plate for NO assay. This CM was mixed with the equal volume of the mixture of Gries reagent ((1% sulfanilamide and 0.1% N-1-napthylethylenediamine dihydrochloride). NaNO2 was used as standard and the colorimetric change were evidenced by measuring its OD at 540 nm in a microplate reader. The cells in the plate were incubated for 1 h with MTT solution making it the final concentration of […]. Blue stained cells were incubated with 200 ul of DMSO and the solution get changed to purple/formazan color and it was observed by measuring the absorbance at 570 nm in a microplate reader.NG-mono-methyl-L-arginine (L-NMMA), a well-known nitric oxide synthase (NOS) inhibitor, was used as a positive control.

[14] = tested on: TNF-α; experiment: Secreted TNF-α ELISA in LPS-induced BV-2 cells; type: cell-based, murine
Experimental: To evaluate the secreted level of Prostaglandin E2 (PGE2), Tumor necrosis factor (TNF-α), Interleukin (IL-6), Interleukin (IL-1β), BV2 cells were seeded in a 6 well plate at the density of 1.5 × 10^6 cells/well in DMEM and incubated for 24 h. Seeded cells sere pretreated and, activated with LPS for next 24 h. conditioned medium from treated cells were collected and stored at -80 degree for longer period of time. The amount of TNF-α, IL-1β, PGE2,and IL-6 were evaluated using the competitive enzyme immunoassay kit. PGE2 kit were obtained from (Cayman Chemical, Ann Arbor, MI, USA) and TNF-α, IL-1β, and IL-6 were measured using ELISA development kits (R&D Systems, Minneapolis, MN, USA). All the protocol was exactly followed as written in the manual.

[15] = tested on: BV-2 cells; experiment: MTT cell viability assay; type: cell-based, murine; settings: 5 μM compound, % of LPS, mean ± SD
Experimental: as §1

[16] = target: T13, CDK1/cyclin B (Homo sapiens, UniProt P06493); settings: cited from earlier work
T13 construct: purchased Reaction Biology Corp

[17] = target: T14, DAPK1 (Homo sapiens, UniProt P53355); settings: cited from earlier work
T14 construct: purchased Reaction Biology Corp

[18] = target: T15, GSK3b (Homo sapiens, UniProt P49841); settings: cited from earlier work
T15 construct: purchased Reaction Biology Corp
T15 sequence (P49841 whole entry): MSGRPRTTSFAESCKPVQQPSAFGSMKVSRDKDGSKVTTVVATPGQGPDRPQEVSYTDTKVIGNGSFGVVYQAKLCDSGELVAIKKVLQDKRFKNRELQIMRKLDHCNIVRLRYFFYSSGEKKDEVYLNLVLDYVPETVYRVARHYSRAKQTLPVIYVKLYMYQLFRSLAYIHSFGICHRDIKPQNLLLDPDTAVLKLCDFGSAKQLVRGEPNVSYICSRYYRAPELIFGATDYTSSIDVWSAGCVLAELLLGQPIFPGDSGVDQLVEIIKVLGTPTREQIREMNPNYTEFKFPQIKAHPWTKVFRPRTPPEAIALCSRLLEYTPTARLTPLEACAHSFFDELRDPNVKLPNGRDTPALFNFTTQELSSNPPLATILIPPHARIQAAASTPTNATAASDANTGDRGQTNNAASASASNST

[19] = target: T16, MST3/STK24 (Homo sapiens, UniProt Q9Y6E0); settings: cited from earlier work
T16 construct: purchased Reaction Biology Corp
T16 sequence (Q9Y6E0 whole entry): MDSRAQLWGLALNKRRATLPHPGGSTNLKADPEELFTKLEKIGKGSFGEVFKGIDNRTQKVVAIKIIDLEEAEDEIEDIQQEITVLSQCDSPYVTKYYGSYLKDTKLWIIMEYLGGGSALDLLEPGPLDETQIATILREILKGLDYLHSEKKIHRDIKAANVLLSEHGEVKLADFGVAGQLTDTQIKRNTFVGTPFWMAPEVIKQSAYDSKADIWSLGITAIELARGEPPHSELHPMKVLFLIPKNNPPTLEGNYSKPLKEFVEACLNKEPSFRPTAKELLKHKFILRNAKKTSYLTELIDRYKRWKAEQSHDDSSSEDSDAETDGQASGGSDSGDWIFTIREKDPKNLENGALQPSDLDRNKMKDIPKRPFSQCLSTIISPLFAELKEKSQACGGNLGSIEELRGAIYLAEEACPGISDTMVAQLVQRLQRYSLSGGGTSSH

[20] = target: T17, P38b/MAPK11 (Homo sapiens, UniProt Q15759); settings: cited from earlier work
T17 construct: purchased Reaction Biology Corp
T17 sequence (Q15759 whole entry): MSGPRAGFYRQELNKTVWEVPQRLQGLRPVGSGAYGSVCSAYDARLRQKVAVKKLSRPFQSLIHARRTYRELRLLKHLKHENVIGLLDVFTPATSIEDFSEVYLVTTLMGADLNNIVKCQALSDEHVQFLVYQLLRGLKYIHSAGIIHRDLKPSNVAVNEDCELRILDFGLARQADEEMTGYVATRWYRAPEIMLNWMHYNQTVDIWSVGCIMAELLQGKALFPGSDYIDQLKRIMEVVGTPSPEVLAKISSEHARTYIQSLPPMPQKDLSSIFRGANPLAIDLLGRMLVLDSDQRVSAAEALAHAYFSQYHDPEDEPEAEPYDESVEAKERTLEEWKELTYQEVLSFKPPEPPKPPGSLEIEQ

[21] = target: T18, TRKC (Homo sapiens, UniProt Q16288); settings: cited from earlier work
T18 construct: purchased Reaction Biology Corp
T18 sequence (Q16288 32-839): as the sequence (Q16288 32-839 G623R/L686M) above, with R592G, M655L counted along it

[22] = 30 μM compound, duplicates Data 1/Data 2
[23] = 30 μM compound, duplicates Data 1/Data 2, read-out: % Enzyme Activity (relative to DMSO controls)
[24] = 30 μM, average ± SD, read-out: % Residual Activity at 30 μM
[25] = read-out: % Enzyme Activity (relative to DMSO controls)

For `O=C1C=CC2(C=C1)OCC(Cc1cn(-c3cccc(Cl)c3)nn1)C(=O)N2c1ccccc1` (stereo not shown) [2d, 3-((1-(3-Chlorophenyl)-1H-1,2,3-triazol-4-yl)methyl)-5-phenyl-1-oxa-5-azaspiro[5.5]undeca-7,10-diene-4,9-dione], the remaining activity at 30 µM [1] was 110%, the “% Enzyme Activity (relative to DMSO controls)” value [2] was 107.43% and the remaining activity at 30 µM [3] was 50.8%. The “% Enzyme Activity (relative to DMSO controls)” value [4] was 47.50%, the “% Enzyme Activity (relative to DMSO controls)” value [5, 22] was 109.81% and the remaining activity at 30 µM [5, 23] was 111%. For the same molecule, the remaining activity at 30 µM [5, 24] was 110.2 ± 0.6%, the “% Enzyme Activity (relative to DMSO controls)” value [6] was 101.96% and the remaining activity at 30 µM [6, 25] was 103%. The “% Enzyme Activity (relative to DMSO controls)” value [7, 22] was 82.67%, the remaining activity at 30 µM [7, 23] was 82.7% and the remaining activity at 30 µM [7, 24] was 82.7 ± 0.1%. For the same molecule, the “% Enzyme Activity (relative to DMSO controls)” value [8, 22] was 98.38%, the remaining activity at 30 µM [8, 23] was 100% and the remaining activity at 30 µM [8, 24] was 99.4 ± 1.5%. The “% Enzyme Activity (relative to DMSO controls)” value [9] was 95.31%, the remaining activity at 30 µM [9, 25] was 96% and the “% Enzyme Activity (relative to DMSO controls)” value [10] was 101.50%. For the same molecule, the remaining activity at 30 µM [10, 25] was 101%, the “% Enzyme Activity (relative to DMSO controls)” value [11] was 250.92% and the remaining activity at 30 µM [11, 25] was 252%. For the same molecule, the “% Enzyme Activity (relative to DMSO controls)” value [12] was 86.58%, the remaining activity at 30 µM [12, 25] was 86.3% and the viability at 24 h, 1 µM ([13]; 1 μM compound) was 112 ± 19.8%. For the same molecule, the viability at 24 h, 5 µM ([13]; 5 μM compound, % of LPS) was 90 ± 6% and the “TNF-α level” value [14] was “concentration-dependent manner”.

For `O=C1C=CC2(C=C1)OCC(Cc1cc(C(F)(F)F)cc(C(F)(F)F)c1)C(=O)N2c1ccccc1` (racemic) [1c], the “Cell Viability (%)” value [15] is listed as 92 ± 13%, the “% Residual Activity at 30 μM” value [16] is listed as 46.0 ± 0.8% and the “% Residual Activity at 30 μM” value [17] is listed as 45.4 ± 0.1%. The “inhibitory activity on GSK-3β” value ([18]; 30 μM) was “did not show any inhibitory activity”, the “% Residual Activity at 30 μM” value [18] was 107.5 ± 1.9% and the “% Residual Activity at 30 μM” value [19] was 58.3 ± 0.7%. For the same molecule, the “% Residual Activity at 30 μM” value [20] was 87.0 ± 1.1% and the “% Residual Activity at 30 μM” value [21] was 97.9 ± 0.2%.
